Laboratory results: paper PMC7801115, “Preclinical in vitro screening of newly synthesised amidino substituted benzimidazoles and benzothiazoles” (Journal of Enzyme Inhibition and Medicinal Chemistry, 2021)

Legend:
[1] = Kinetic solubility; format: physicochemical; conditions: aqueous buffer, kinetic from dmso stock, phosphate buffer 50 mM, pH 7.4, 1% DMSO, 37 °C
Method: Test compounds and assay controls (sulfaphenazole and α-naphtoflavone) were serially diluted in DMSO by factor 3.3x, 3x, 3.3x and 3x, resulting in a total of 5 different concentrations. Phosphate buffer (50 mM, pH 7.4) was spiked with diluted test compounds and controls with final concentration range in the assay as follows: 100, 30, 10, 3 and 1 µM (1% DMSO). Plate was then incubated by gentle shaking (200–300 rpm) for 1 h and 45 min at 37 °C. After additional15 min on room temperature (without shaking), plate absorbance at 620 nm was measured with microplate reader Tecan, Infinite F500 (total incubation time = 2 h).

[2] = system: A549; assay: BrdU proliferation assay, 2D cell culture; format: cell-based; conditions: Homo sapiens, A549, 2D cell culture, ±SD, N = 2
Method: (§1) Cells were grown in 96 well cell star polystyrene plates. 10,000 cells/well were seeded in wells 4 h prior the treatment with different compounds concentrations and incubated for 72 h. A cell viability assay was performed according to the manufacturer’s instruction, using CellTiter 96 aqueous solution, MTS kit (Promega, Madison, WI, USA). After 0.5–2 h of cell incubation with MTS in 2 D cell culture, the plates were read using PE EnVision absorbance at 490 nm. The results for each of tested compounds are reported as growth percentages from two independent concentrations curves compared with the untreated control cells after drug exposure. Since we prefer homogeneous assays (mix and read procedures) and therefore MTS is more practical (one step less than MTT). MTS is more sensitive and accurate in comparison with MTT assay.
Proliferation assay was performed using Cell Proliferation ELISA, BrdU (Sigma, St. Louis, MO, USA). Briefly, 48 h hours after compound addition, 10 µM of BrdU was added to each well and incubated for following 24 h. After incubation, single cell suspension was made for 3 D cell culture in the new 96 well plate. Plates were centrifuged and supernatants were removed from each plate (for 2 D and 3 D cell culture) followed by 60 min incubation at 60° C. The rest of the proliferation assay was performed according to the manufacturer instructions.
Calculation of IC50 data, curves and QC analysis is made by using Excel tools and GraphPadPrism software (La Jolla, CA), v. 5.03. In brief, individual concentration–effect curves are generated by plotting the logarithm of the tested concentration of tested compounds (X) versus corresponding percent inhibition values (Y) using least squares (ordinary) fit. […] QC criteria parameters (Z', S:B, R2, HillSlope) were checked for every IC50 curve.

[3] = Chromatographic lipophilicity study (Chrom logD7.4); format: physicochemical; conditions: gradient reverse-phase HPLC (Phenomenex Luna C18 column); pH 7.4, gradient reverse-phase HPLC, from CHI7.4
Method: In order to determine the lipophilicity range, Chromatographic Hydrophobicity Index was measured by gradient reverse-phase HPLC at physiological pH. Sample working solutions were prepared from 10 mM DMSO stock solutions by dilution with acetonitrile to a final concentration of 1.25 mM and analysed on Agilent 1100 Series liquid chromatography system with HPLC diode-array detector (DAD) coupled with Micromass Quattro micro API mass spectrometer. Samples were injected onto an HPLC column (Phenomenex Luna C18, 50 × 3 mm, 5 µm) and eluted with a gradient at room temperature (sample temperature 15 °C). The mobile phase was composed of 50 mM Ammonium acetate, pH = 7.4 and acetonitrille. A total run time was 5 min, with the flow rate of 1 ml/min (under gradient conditions). The HPLC system was initially calibrated using the calibration set of 10 compounds with literature CHI values. The experimentally determined gradient retention times were plotted against the CHI7.4 values published in the literature resulting in the equation obtained from linear regression analysis. This equation was further used for the calculation of CHI7.4 for test compounds from determined retention times of the main chromatographic peak from UV chromatogram for each compound. The obtained CHI7.4 values were further converted to Chrom log D7.4 as follows: CHI7.4 × 0.0857 − 2.

[4] = system: HCC827; assay: MTS cell viability (cytotoxicity) assay, 2D cell culture; format: cell-based; conditions: Homo sapiens; HCC827, 2D cell culture, 72 h, MTS; ±SD, N = 2; read-out: IC50 antitumor activity HCC827 2D
Method: (§2) Compounds are diluted 1:3. 500 nL (for 2 D cell culture) or 400 nL (for 3 D cell culture) of compound were transferred from mother plate to test plate by using Mosquito (TTP labtech). DMSO percentage in test concentrations was 0.5 − 1.0%. Starting concentration of the test compounds and standard compound doxorubicin was 50 µM (2 D cell culture) or 100 µM (3 D cell culture).
as §1, with “The results for each of tested compounds are reported as growth percentages from two independent concentrations curves compared with the untreated control cells after drug exposure.” left out
(§3) Calculation of IC50 data, curves and QC analysis is made by using Excel tools and GraphPadPrism software (La Jolla, CA), v. […] QC criteria parameters (Z', S:B, R2, HillSlope) were checked for every IC50 curve.

[5] = system: A549; assay: as above; format: cell-based; conditions: Homo sapiens, A549, 2D cell culture, 72 h, ±SD, N = 2, read-out: IC50 antitumor activity A549 2D
Method: as §2
as §1, with “The results for each of tested compounds are reported as growth percentages from two independent concentrations curves compared with the untreated control cells after drug exposure.” left out
as §3

[6] = system: NCI-H358; assay: as above; format: cell-based; conditions: Homo sapiens; NCI-H358, 2D cell culture, 72 h, MTS; ±SD, N = 2; read-out: IC50 antitumor activity NCI-H358 2D
Method: as §2
as §1, with “The results for each of tested compounds are reported as growth percentages from two independent concentrations curves compared with the untreated control cells after drug exposure.” left out
as §3

| Structure (SMILES) | solubility kinetic at 2 h [1] [µM] | IC50 [2] [µM] | chromatographic logD [3] | IC50 [4] [µM] | IC50 [5] [µM] | IC50 [6] [µM] |
| --- | --- | --- | --- | --- | --- | --- |
| Cl.N#Cc1ccc(-c2nc3ccc(C4=NCCCN4)cc3s2)cc1 [Compound 5b, 2–(4-Cyanophenyl)-6–(3,4,5,6-tetrahydropyrimidin-1-ium-2-yl)benzothiazole chloride] | > 100 | > 50 | 2.18 | > 50 | > 50 | > 50 |
| c1ccc2c(c1)cc(-c1nc3cc(C4=NCCCN4)ccc3[nH]1)c1ccccc12 [Compound 6g, 2-(Phenanthrene-9-yl)-5(6)–(3,4,5,6-tetrahydropyrimidin-1-ium-2-yl)benzimidazole chloride] | 30 to 100 | > 50 | 3.27 | > 50 | > 50 | > 50 |
| c1ccc2c(-c3nc4ccc(C5=NCCCN5)cc4[nH]3)c[nH]c2c1 [Compound 6e, 2-(1H-Indol-3-yl)-5(6)–(3,4,5,6-tetrahydropyrimidin-1-ium-2-yl)benzimidazole chloride] | 10 to 30 | > 50 | 1.38 | > 50 | > 50 | > 50 |
| N#Cc1ccc(-c2nc3cc(C4=NCCCN4)ccc3[nH]2)cc1 [Compound 6b, 2–(4-Cyanophenyl)-5(6)–(3,4,5,6-tetrahydropyrimidin-1-ium-2-yl)benzimidazole chloride] | > 100 | > 50 | 1.17 | > 50 | > 50 | > 50 |
| c1ccc2sc(-c3nc4cc(C5=NCCCN5)ccc4[nH]3)cc2c1 [Compound 6d, 2-(Benzo[b]thiophen-2-yl)-5(6)–(3,4,5,6-tetrahydropyrimidin-1-ium-2-yl)benzimidazole chloride] | 10 to 30 | > 50 | 2.43 | > 50 | > 50 | > 50 |
| c1ccc2cc(-c3nc4cc(C5=NCCCN5)ccc4[nH]3)ccc2c1 [Compound 6f, 2-(Naphthalene-2-yl)-5(6)–(3,4,5,6-tetrahydropyrimidin-1-ium-2-yl)benzimidazole chloride] | 30 to 100 | > 50 | 2.18 | > 50 | > 50 | > 50 |
| FC(F)(F)c1ccc(-c2nc3cc(C4=NCCCN4)ccc3[nH]2)cc1 [Compound 6c, 2–(4-Trifluoromethylphenyl)-5(6)–(3,4,5,6-tetrahydropyrimidin-1-ium-2-yl)benzimidazole chloride] | > 100 | > 50 | 2.6 | > 50 | > 50 | > 50 |

The next compounds have a lower IC50 [2] than those just listed; values first:

| solubility kinetic at 2 h [1] [µM] | IC50 [2] [µM] | chromatographic logD [3] | Structure (SMILES) | IC50 [4] [µM] | IC50 [5] [µM] | IC50 [6] [µM] |
| --- | --- | --- | --- | --- | --- | --- |
| > 100 | 48 ± 0.73 | 3.31 | Cl.FC(F)(F)c1ccc(-c2nc3ccc(C4=NCCCN4)cc3s2)cc1 [Compound 5c, 2–(4-Trifluoromethylphenyl)-6–(3,4,5,6-tetrahydropyrimidin-1-ium-2-yl)benzothiazole chloride] | 7 ± 0.45 | 34 ± 8.65 | 23 ± 0.79 |
| 30 to 100 | 16 ± 0.39 | 3.19 | Cl.c1ccc2sc(-c3nc4ccc(C5=NCCCN5)cc4s3)cc2c1 [Compound 5e, 2-(Benzo[b]thiophen-2-yl)-6–(3,4,5,6-tetrahydropyrimidin-1-ium-2-yl)benzothiazole chloride] | 7 ± 0.12 | 36 ± 6.37 | 16 ± 0.98 |
| > 100 | 11 ± 5.56 | 0.92 | c1ccc(-c2nc3cc(C4=NCCCN4)ccc3[nH]2)cc1 [Compound 6a, 2-Phenyl-5(6)–(3,4,5,6-tetrahydropyrimidin-1-ium-2-yl)benzimidazole chloride] | 6 ± 0.5 | 15 ± 1.7 | 13 ± 0.28 |
| 10 to 30 | 10 ± 0.78 | 3.31 | Cl.c1ccc2cc(-c3nc4ccc(C5=NCCCN5)cc4s3)ccc2c1 [Compound 5h, 2-(Naphthalene-2-yl)-6–(3,4,5,6-tetrahydropyrimidin-1-ium-2-yl)benzothiazole chloride] | 6 ± 0.05 | 38 ± 3.68 | 10 ± 1 |
| 30 to 100 | 7 ± 2.31 | 2.71 | Cl.c1ccc2sc(-c3nc4ccc(C5=NCCCN5)cc4s3)nc2c1 [Compound 5g, 2-(Benzothiazole-2-yl)-6–(3,4,5,6-tetrahydropyrimidin-1-ium-2-yl)benzothiazole chloride] | 19 ± 2.21 | 41 ± 0.54 | 26 ± 0.3 |
| 30 to 100 | 1 | 2.87 | Cl.c1ccc2nc(-c3nc4ccc(C5=NCCCN5)cc4s3)ccc2c1 [Compound 5d, 2-(Quinoline-2-yl)-6–(3,4,5,6-tetrahydropyrimidin-1-ium-2-yl)benzothiazole chloride] | 14 ± 2.09 | > 50 | 20 ± 2.53 |
